This passage reports MIC results from DBAASP.

Experiment in all cases: ≥ marks a high value that may be exact or a test limit, other limits are often not marked, values filed in µg/mL are converted to µM
In experiment [1] the test system is Trichoderma viride.
The test system of experiment [2] is Botrytis cinerea.
Experiment [3] deals with Fusarium oxysporum.
Experiment [4] has as its system Alternaria brassicicola.
In experiment [5] the test system is Aspergillus fumigatus.
For experiment [6], the system named is Beauveria bassiana.
Experiment [7] has as its system Fusarium haematococcum.
Experiment [8] relates to Fusarium culmorum.
For experiment [9], the system named is Trichophyton mentagrophytes.
For experiment [10], the system named is Neurospora crassa.
The subject of experiment [11] is Serratia marcescens ATCC 8100.
Experiment [12] deals with Enterococcus faecium.
For experiment [13], the system named is Salmonella enterica subsp. enterica serovar Typhimurium ATCC 14028.
Experiment [14] relates to Escherichia coli ATCC 10536.
In experiment [15] the test system is Candida albicans.
Experiment [16] relates to Escherichia coli D21.
Experiment [17] concerns Escherichia coli O18:K1:H7 Bort.
Experiment [18] concerns Streptococcus agalactiae.
Experiment [19] relates to Escherichia coli ATCC 25922.
In experiment [20] the test system is Escherichia coli DH5alpha.
Experiment [21] has as its system Staphylococcus aureus ATCC 9144.
Experiment [22] has as its system Staphylococcus aureus Cowan 1.
Experiment [23] concerns Staphylococcus aureus ATCC 25923.
Experiment [24] relates to Staphylococcus aureus.
Experiment [25] relates to Cryptococcus neoformans.
The test system of experiment [26] is Bacillus megaterium Bm11.
Experiment [27] has as its system Serratia marcescens.
Experiment [28] concerns Staphylococcus epidermidis ATCC 12228.
Experiment [29] concerns Escherichia coli ML-35.
In experiment [30] the test system is Pseudomonas aeruginosa ATCC 27853.
In experiment [31] the test system is Bacillus subtilis ATCC 6633.

Each structure is given as a SMILES string. In brackets after ≈: the same amount, converted by molar mass. Several values for one entry are separate records, joined by “and”; a condition that tells them apart may be missing. Identical values can stand only once.

Take `CC[C@H](C)[C@H](NC(=O)[C@H](Cc1cnc[nH]1)NC(=O)[C@H](CCC(=O)O)NC(=O)CNC(=O)[C@H](Cc1cnc[nH]1)NC(=O)[C@H](CC(N)=O)NC(=O)[C@H](Cc1ccccc1)NC(=O)[C@@H](NC(=O)[C@H](CCCCN)NC(=O)[C@@H](NC(=O)[C@H](CCC(N)=O)NC(=O)[C@@H](NC(=O)[C@H](Cc1cnc[nH]1)NC(=O)CNC(=O)[C@H](Cc1ccccc1)NC(=O)[C@H](CC(N)=O)NC(=O)[C@@H]1CCCN1C(=O)[C@H](CC(C)C)NC(=O)[C@H](CC(=O)O)NC(=O)[C@H](CCC(=O)O)NC(=O)[C@@H](N)Cc1ccccc1)[C@@H](C)CC)C(C)C)C(C)C)C(=O)N[C@@H](Cc1cnc[nH]1)C(=O)N[C@@H](Cc1cnc[nH]1)C(=O)O` [FEDLPNFGHIQVKVFNHGEHIHH]: the minimum inhibitory concentration (MIC) was 6.25 µM (≈ 17.2 µg/mL) in [1]; not below 100 µM in [2]; 12.5 µM (≈ 34.4 µg/mL) in experiment [3]; 6.25 µM (≈ 17.2 µg/mL) in [4]; not below 100 µM in [5]; not below 100 µM in experiment [6]. Moreover, the MIC is 6.25 µM (≈ 17.2 µg/mL) in [7], 12.5 µM (≈ 34.4 µg/mL) in experiment [8], not below 100 µM in experiment [9] and not below 50 µM in [10].
With `CC[C@H](C)[C@H](NC(=O)[C@H](CCCN=C(N)N)NC(=O)[C@@H](NC(=O)[C@@H](NC(=O)[C@@H]1CCCN1C(=O)[C@@H](NC(=O)[C@@H](NC(=O)[C@@H](NC(=O)[C@@H]1CCCN1C(=O)CNC(=O)[C@H](Cc1ccc(O)cc1)NC(=O)[C@H](CCCCN)NC(=O)[C@H](CCCCN)NC(=O)[C@H](Cc1c[nH]c2ccccc12)NC(=O)[C@H](C)NC(=O)[C@H](CCCN=C(N)N)NC(=O)[C@H](CC(C)C)NC(=O)[C@@H](NC(=O)[C@H](CCCCN)NC(=O)[C@H](CCCN=C(N)N)NC(=O)CNC(=O)[C@H](CC(C)C)NC(=O)[C@H](CO)NC(=O)[C@H](CCCN=C(N)N)NC(=O)[C@H](CC(C)C)NC(=O)CNC(=O)CN)[C@@H](C)CC)[C@@H](C)CC)[C@@H](C)CC)C(C)C)[C@@H](C)CC)[C@@H](C)CC)C(=O)NCC(N)=O` [GGLRSLGRKILRAWKKYGPIIVPIIRIG], the MIC in experiment [11] is 2 µM (≈ 6.26 µg/mL); in experiment [12], 2.83 µM (≈ 8.86 µg/mL); in experiment [13], 1 µM (≈ 3.13 µg/mL); in experiment [14] it was 2.6 µM (≈ 8.14 µg/mL); in experiment [15], 8 µM (≈ 25 µg/mL); in experiment [16], 0.5 µM (≈ 1.57 µg/mL). The minimum inhibitory concentration (MIC) in [17] is 2 µM (≈ 6.26 µg/mL); in experiment [18], 2.83 µM (≈ 8.86 µg/mL); in experiment [19], 2 µM (≈ 6.26 µg/mL); in experiment [20], 2.4 µM (≈ 7.51 µg/mL); in [21], 3 µM (≈ 9.39 µg/mL); in [22], 1 µM (≈ 3.13 µg/mL). The MIC in experiment [23] came to 2 µM (≈ 6.26 µg/mL); in [24] it was 2.83 µM (≈ 8.86 µg/mL); in experiment [25], 4 µM (≈ 12.5 µg/mL); in [26] it was 2 µM (≈ 6.26 µg/mL); in [27], 8 µM (≈ 25 µg/mL); in experiment [28], 1 µM (≈ 3.13 µg/mL). For the same compound, the MIC is 2 µM (≈ 6.26 µg/mL) in experiment [29]; 2 µM and > 1 µM in [30]; 1.6 µM (≈ 5.01 µg/mL) in [31].

The MIC is the smallest concentration in the dilution series that meets the test's criterion for growth inhibition.
